Measured values: patent US9895330B2, “IDO inhibitors” (BRISTOL-MYERS SQUIBB COMPANY, priority 2013, dated 2018)

The compounds below were run against T1, IDO (IFNγ-treated Hela cells) (Homo sapiens, UniProt P14902) (assay: IDO Kynurenine Assay with Hela Cells). Conditions: IFNγ 10 ng/ml, 20 hours incubation, kynurenine absorbance at 490 nm, read-out: Hela Cells LLE_IDO_ABS_DR (IC50).
T1 construct: endogenous in cells; host or cells: Hela cells treated with IFNγ (10 ng/ml)
Type: cell-based
Procedure: IDO Kynurenine Assay with Hela Cells
Hela cells were seeded at 30,000 cells per well in 40 ul RPMI/phenol red free media contains 10% FBS in a 384-well black wall clear bottom tissue culture plate (Matrix Technologies LLC). 270 nl of certain concentration of compound was then added to each well using ECHO liquid handling systems. 40 ul of IFNγ (R&D, 285-IF-100) at final concentration of 10 ng/ml was then added to column 2-24 with media to column 1 as control. The cells were incubated for 20 hours in 37° C. incubator with 5% CO2.
The compound treatments were stopped by adding trichloroacetic acid (Sigma-Aldrich) to a final concentration at 0.2%. The cell plate was further incubated at 50° C. for 30 minute. The equal volume supernatant (20 uL) and 0.2% (w/v) Ehrlich reagent (4-dimethylaminobenzaldehyde, Sigma-Aldrich) in glacial acetic acid were mixed in a new clear bottom 384-well plate. This plate was then incubated at room temperature for 30 minute. The absorbance at 490 nm was measured on Envision plate reader.
Compound IC50 values were calculated using the counts of no IFNγ control as one hundred percent inhibition, and counts of no compound but DMSO treatment as zero percent inhibition.

T1 sequence (P14902 whole entry): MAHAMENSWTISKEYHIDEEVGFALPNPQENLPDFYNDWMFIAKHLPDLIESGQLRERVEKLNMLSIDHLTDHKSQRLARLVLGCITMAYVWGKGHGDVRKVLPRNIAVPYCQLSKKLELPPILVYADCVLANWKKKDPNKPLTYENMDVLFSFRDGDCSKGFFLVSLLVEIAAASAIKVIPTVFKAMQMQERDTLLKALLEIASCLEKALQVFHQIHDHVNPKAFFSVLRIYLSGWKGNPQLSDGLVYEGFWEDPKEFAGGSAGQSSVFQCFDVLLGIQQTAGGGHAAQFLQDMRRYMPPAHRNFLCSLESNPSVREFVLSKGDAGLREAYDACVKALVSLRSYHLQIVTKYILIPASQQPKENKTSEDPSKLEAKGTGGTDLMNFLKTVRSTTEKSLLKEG

IC50 | SMILES
500 nM | CC(C)CN(CC(C)C)c1ccc(-c2ccccc2-c2nnn[nH]2)cc1NC(=O)CC1CC1 [Example 33]
2510 nM | N#Cc1ccc(CC(=O)Nc2cc(-c3ccccc3-c3nnn[nH]3)ccc2N2CC3CC2CN3Cc2ccccc2)cc1 (stereo not drawn) [Example 79]
10 nM | Cc1ccc(CC(=O)Nc2cc(-c3ccccc3C(=O)O)ccc2N(CC(C)C)CC(C)C)cc1 [Example 4, 4′-(diisobutylamino)-3′-(2-p-tolylacetamido) biphenyl-2-carboxylic acid]
90 nM | CC(C)CN(CC(C)C)c1ccc(-c2ccccc2-c2nnn[nH]2)cc1NC(=O)Cc1ccc(OC(F)(F)F)cc1 [Example 15, N-(4-(diisobutylamino)-2′-(1H-tetrazol-5-yl)biphenyl-3-yl)-2-(4-(trifluoromethoxy)phenyl)acetamide]
8920 nM | O=C(Nc1cc(-c2ccccc2-c2nnn[nH]2)ccc1N1CC2CC1CN2Cc1ccccc1)[C@H](O)c1ccccc1 (stereo partly drawn) [Example 83]
250 nM | CC(C)CN(CC(C)C)c1ccc(-c2ccccc2-c2nnn[nH]2)cc1NC(=O)Cc1ccc(Oc2ccccc2)cc1 [Example 34]
400 nM | Cc1nc(CC(=O)Nc2cc(-c3ccccc3-c3nnn[nH]3)ccc2N(CC(C)C)CC(C)C)cs1 [Example 36]
2520 nM | CC(C)CN(CC(C)C)c1ccc(-c2ccccc2-c2nnn[nH]2)cc1NC(=O)CN1CCOCC1 [Example 38]
80 nM | CC(C)CN(CC(C)C)c1ccc(-c2ccccc2-c2nnn[nH]2)cc1NC(=O)Cc1cncc(Br)c1 [Example 44]
1330 nM | CC(C)CN(CC(C)C)c1ccc(-c2ccccc2-c2nnn[nH]2)cc1NC(=O)Cc1ccc(C(C)C)cc1 [Example 13, N-(4-(diisobutylamino)-2′-(1H-tetrazol-5-yl)biphenyl-3-yl)-2-(4-isopropylphenyl) acetamide]
80 nM | CC(C)CN(CC(C)C)c1ccc(-c2ccccc2-c2nnn[nH]2)cc1NC(=O)Cc1cccc2ccccc12 [Example 24]
40 nM | COc1ccc(CC(=O)Nc2cc(-c3ccccc3-c3nnn[nH]3)ccc2N(CC(C)C)CC(C)C)c(C(F)(F)F)c1 [Example 18, N-(4-(diisobutylamino)-2′-(1H-tetrazol-5-yl)biphenyl-3-yl)-2-(4-methoxy-2-(trifluoromethyl)phenyl)acetamide]
20 nM | CC(C)CN(CC(C)C)c1ccc(-c2ccccc2-c2nnn[nH]2)cc1NC(=O)Cc1ccccc1Cl [Example 25]
1280 nM | Cc1noc(C)c1CC(=O)Nc1cc(-c2ccccc2-c2nnn[nH]2)ccc1N(CC(C)C)CC(C)C [Example 37]
70 nM | CC(C)CN(CC(C)C)c1ccc(-c2ccccc2-c2nnn[nH]2)cc1NC(=O)Cc1cccnc1 [Example 31]
270 nM | CC(C)CN(CC(C)C)c1ccc(-c2ccccc2-c2nnn[nH]2)cc1NC(=O)CC(F)(F)F [Example 35]
20 nM | CC(C)CN(CC(C)C)c1ccc(-c2ccccc2-c2nnn[nH]2)cc1NC(=O)Cc1ccccc1F [Example 19, N-(4-(diisobutylamino)-2′-(1H-tetrazol-5-yl)biphenyl-3-yl)-2-(2-fluorophenyl)acetamide]
280 nM | O=C(Cc1ccccc1C(F)(F)F)Nc1cc(-c2ccccc2-c2nnn[nH]2)ccc1-n1cccn1 [Example 76]
1830 nM | COCCOCC(=O)Nc1cc(-c2ccccc2-c2nnn[nH]2)ccc1N(CC(C)C)CC(C)C [Example 41]
500 nM | CC(C)CN(CC(C)C)c1ccc(-c2ccccc2-c2nnn[nH]2)cc1NC(=O)COc1cccnc1 [Example 42]

IC50 | SMILES
160 nM | Cc1ccc(OCC(=O)Nc2cc(-c3ccccc3-c3nnn[nH]3)ccc2N(CC(C)C)CC(C)C)cc1 [Example 40]
470 nM | CC(C)CN(Cc1ccccc1)c1ccc(-c2ccccc2-c2nnn[nH]2)cc1NC(=O)CC(C)(C)C [Example 47, N-(4-(Benzyl(isobutyl)amino)-2′-(2H-tetrazol-5-yl)biphenyl-3-yl)-3,3-dimethylbutanamide]
4440 nM | CC(C)(C)CC(=O)Nc1cc(-c2ccccc2-c2nnn[nH]2)ccc1-n1cccn1 [Example 78]
50 nM | CC(C)CN(CC(C)C)c1ccc(-c2ccccc2-c2nnn[nH]2)cc1NC(=O)Cc1cccc(F)c1F [Example 39]
4.05 nM | COc1ccc(CC(=O)Nc2cc(-c3ccccc3-c3nnn[nH]3)ccc2N(CC(C)C)CC(C)C)cc1 [Example 11, N-(4-(diisobutylamino)-2′-(1H-tetrazol-5-yl)biphenyl-3-yl)-2-(4-methoxyphenyl)acetamide]
8.9 nM | CC(C)CN(CC(C)C)c1ccc(-c2ccccc2-c2nnn[nH]2)cc1NC(=O)Cc1cccc(F)c1 [Example 16, N-(4-(diisobutylamino)-2′-(1H-tetrazol-5-yl)biphenyl-3-yl)-2-(3-fluorophenyl)acetamide]
5.09 nM | CC(C)CN(CC(C)C)c1ccc(-c2ccccc2-c2nnn[nH]2)cc1NC(=O)Cc1ccc(C#N)cc1 [Example 43]
520 nM | Cc1ccc(CC(=O)Nc2cc(-c3ccccc3-c3nnn[nH]3)ccc2N2C[C@H](C)C[C@H](C)C2)cc1 [Example 21, N-(4-(cis-3,5-Dimethylpiperidin-1-yl)-2′-(1H-tetrazol-5-yl)-[1,1′-biphenyl]-3-yl)-2-(p-tolyl)acetamide]
20 nM | CC(C)CN(Cc1ccccc1)c1ccc(-c2ccccc2-c2nnn[nH]2)cc1NC(=O)Cc1ccccc1C(F)(F)F [Example 3, N,N-(4-(Benzyl(isobutyl)amino)-2′-(1H-tetrazol-5-yl)biphenyl-3-yl)-2-(2-(trifluoromethyl)phenyl)acetamide]
20 nM | CC(C)CN(c1ccc(-c2ccccc2-c2nnn[nH]2)cc1NC(=O)Cc1ccccc1F)C1CCCCC1 [Example 9, N-(4-(cyclohexyl(isobutyl)amino)-2′-(1H-tetrazol-5-yl)biphenyl-3-yl)-2-(2-fluorophenyl)acetamide]
160 nM | CC(C)CN(CC(C)C)c1ccc(-c2ccccc2-c2nnn[nH]2)cc1NC(=O)Cc1cccc(C(F)(F)F)c1 [Example 27]
1190 nM | C[C@@H]1C[C@H](C)CN(c2ccc(-c3ccccc3-c3nnn[nH]3)cc2NC(=O)Cc2ccc(F)cc2)C1 [Example 22, N-(4-(cis-3,5-Dimethylpiperidin-1-yl)-2′-(1H-tetrazol-5-yl)-[1,1′-biphenyl]-3-yl)-2-(4-fluorophenyl)acetamide]
3610 nM | CC(C)(C)CC(=O)Nc1cc(-c2ccccc2-c2nnn[nH]2)ccc1N1CC2CC1CN2Cc1ccccc1 (stereo not drawn) [Example 82]
90 nM | CC(C)CN(CC(C)C)c1ccc(-c2ccccc2-c2nnn[nH]2)cc1NC(=O)Cc1ccc(O)cc1 [Example 28]
60 nM | CC(C)CN(CC(C)C)c1ccc(-c2ccccc2-c2nnn[nH]2)cc1NC(=O)Cc1ccc(C(F)(F)F)cc1 [Example 29]
10 nM | Cc1ccc(CC(=O)Nc2cc(-c3cc(F)ccc3C(=O)O)ccc2N(CC(C)C)CC(C)C)cc1 [Example 1, 4′-(Diisobutylamino)-5-fluoro-3′-(2-p-tolylacetamido)biphenyl-2-carboxylic acid]
300 nM | CC(C)CN(CC(C)C)c1ccc(-c2ccccc2-c2nnn[nH]2)cc1NC(=O)Cc1ccccn1 [Example 30]
7.09 nM | CCCCN(c1ccc(-c2ccccc2-c2nnn[nH]2)cc1NC(=O)Cc1ccccc1F)C1CCCCC1 [Example 10, N-(4-(butyl(cyclohexyl)amino)-2′-(1H-tetrazol-5-yl)-[1,1′-biphenyl]-3-yl)-2-(2-fluorophenyl) acetamide]
50 nM | CC(C)CN(CC(C)C)c1ccc(-c2ccccc2-c2nnn[nH]2)cc1NC(=O)Cc1ccccc1C(F)(F)F [Example 26]

SMILES | IC50
COc1ccc(OC(=O)Nc2cc(-c3ccccc3-c3nnn[nH]3)ccc2N(CC(C)C)CC(C)C)cc1 [Example 50, 4-methoxyphenyl (4-(diisobutylamino)-2′-(1H-tetrazol-5-yl)-[1,1′-biphenyl]-3-yl)carbamate] | 120 nM
Cc1ccc(CC(=O)Nc2cc(-c3ccccc3-c3nnn[nH]3)ccc2-n2cccn2)cc1 [Example 46, 2-(4-methylphenyl)-N-[2-(1H-pyrazol-1-yl)-5-[2-(1H-1,2,3,4-tetrazol-5-yl)phenyl]phenyl]acetamide] | 230 nM
COc1ccc(OC(=O)Nc2cc(-c3ccccc3-c3nnn[nH]3)ccc2N(CC(C)C)CC(C)C)cc1F [Example 52, 3-fluoro-4-methoxyphenyl (4-(diisobutylamino)-2′-(1H-tetrazol-5-yl)-[1,1′-biphenyl]-3-yl) carbamate] | 6560 nM
CC(C)CN(CC(C)C)c1ccc(-c2ccccc2-c2nnn[nH]2)cc1NC(=O)Oc1ccc2c(c1)OCO2 [Example 51, benzo[d][1,3]dioxol-5-yl (4-(diisobutylamino)-2′-(1H-tetrazol-5-yl)-[1,1′-biphenyl]-3-yl) carbamate] | 3910 nM
CC(C)CN(CC(C)C)c1ccc(-c2ccccc2-c2nnn[nH]2)cc1NC(=O)Oc1ccc(Cl)cc1 [Example 45, 4-Chlorophenyl (4-(diisobutylamino)-2′-(1H-tetrazol-5-yl)-[1,1′-biphenyl]-3-yl)carbamate] | 3900 nM
CC(C)CN(CC(C)C)c1ccc(-c2ccccc2-c2nnn[nH]2)cc1NC(=O)Oc1ccc(OCc2ccccc2)cc1 [Example 53, 4-(benzyloxy)phenyl (4-(diisobutylamino)-2′-(1H-tetrazol-5-yl)-[1,1′-biphenyl]-3-yl)carbamate] | 3250 nM
